Measured values: publication PMC5382279, “Glutaredoxin catalysis requires two distinct glutathione interaction sites” (Nature Communications, 2017)
Several values for one entry are separate records, joined by “and”; a condition that tells them apart may be missing. Identical values can stand only once. Numbered stars: 1 amine (or outer) side, 2 acyl side, 3 side chain; on linkers, the order of the positions; unused ones are H or OH. Square brackets hold non-standard residues; d marks the D form. Peptide text beside a SMILES is read from it. γGlu = O=C(O)[C@H](CCC(=O)[*:2])N[*:1]; Abu = CC[C@H](N)C(=O)O

Key:
ScGrx7 [1] = biological target: T1, ScGrx7 (Saccharomyces cerevisiae, UniProt P38068); experiment: coupled NADPH/glutathione reductase assay, […] nm, HEDS assay; format: biochemical; conditions: varied HEDS 90-920 uM at fixed GSH 0.3-1.5 mM; 0.1 M Tris/HCl, 1 mM EDTA, pH 8.0, 25 C; sequential pattern
T1 construct: gene GRX7; N-terminal MRGS(H)6 tag kept, E. coli XL1-Blue, pQE30/SCGRX7 double stop-codon construct
T1 sequence (P38068 33-203): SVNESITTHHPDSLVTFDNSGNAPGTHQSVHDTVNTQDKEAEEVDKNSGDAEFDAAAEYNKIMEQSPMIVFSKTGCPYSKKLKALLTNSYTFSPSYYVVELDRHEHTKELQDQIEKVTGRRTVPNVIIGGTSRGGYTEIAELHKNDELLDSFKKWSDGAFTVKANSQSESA

ScGrx7 [2] = biological target: T1, ScGrx7; experiment: inhibition of HEDS or GSSEtOH assay; format: biochemical; conditions: up to 10 mM inhibitor; weak competitive inhibitor; HEDS or GSSEtOH as disulfide substrate with GSH
ScGrx7 [3] = biological target: T2, ScGrx7 (Saccharomyces cerevisiae, UniProt P38068, K105E); experiment: coupled NADPH/glutathione reductase assay, […] nm, GSSCys assay; format: biochemical; conditions: varied GSSCys 25-200 uM at fixed GSH 0.05-1.0 mM; 0.1 M Tris/HCl, 1 mM EDTA, pH 8.0, 25 C; ping-pong
T2 construct: gene GRX7; N-terminal MRGS(H)6 tag kept, E. coli XL1-Blue, pQE30/SCGRX7 double stop-codon construct
T2 sequence (P38068 33-203 K105E): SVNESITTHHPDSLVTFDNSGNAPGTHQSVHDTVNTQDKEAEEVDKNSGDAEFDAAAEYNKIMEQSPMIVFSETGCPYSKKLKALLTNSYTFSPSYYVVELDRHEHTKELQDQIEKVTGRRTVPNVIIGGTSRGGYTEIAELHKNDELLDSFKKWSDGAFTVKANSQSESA

ScGrx7 [4] = biological target: T3, ScGrx7 (Saccharomyces cerevisiae, UniProt P38068, E170A); experiment: as above; format: biochemical; conditions: varied GSSCys 25-200 uM at fixed GSH 0.05-1.0 mM; 0.1 M Tris/HCl, 1 mM EDTA, pH 8.0, 25 C; ping-pong
T3 construct: gene GRX7; N-terminal MRGS(H)6 tag kept, E. coli XL1-Blue, pQE30/SCGRX7 double stop-codon construct
T3 sequence (P38068 33-203 E170A): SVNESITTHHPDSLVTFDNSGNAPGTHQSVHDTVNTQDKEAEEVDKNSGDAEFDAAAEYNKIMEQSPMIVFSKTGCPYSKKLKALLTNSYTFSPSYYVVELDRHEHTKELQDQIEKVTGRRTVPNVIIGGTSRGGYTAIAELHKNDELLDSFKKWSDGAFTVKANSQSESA

ScGrx7 [5] = biological target: T4, ScGrx7 (Saccharomyces cerevisiae, UniProt P38068, K105A); experiment: as above; format: biochemical; conditions: varied GSSCys 25-200 uM at fixed GSH 0.05-1.0 mM; 0.1 M Tris/HCl, 1 mM EDTA, pH 8.0, 25 C; ping-pong
T4 construct: gene GRX7; N-terminal MRGS(H)6 tag kept, E. coli XL1-Blue, pQE30/SCGRX7 double stop-codon construct
T4 sequence (P38068 33-203 K105A): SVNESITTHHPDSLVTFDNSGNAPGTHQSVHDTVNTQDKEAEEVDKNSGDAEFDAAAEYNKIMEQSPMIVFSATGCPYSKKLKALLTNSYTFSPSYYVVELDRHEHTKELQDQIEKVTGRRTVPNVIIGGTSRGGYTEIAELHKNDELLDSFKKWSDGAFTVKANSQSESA

ScGrx7 [6] = biological target: T1, ScGrx7; experiment: as above; format: biochemical; conditions: varied GSSCys 25-200 uM at fixed GSH 0.05-1.0 mM; 0.1 M Tris/HCl, 1 mM EDTA, pH 8.0, 25 C; ping-pong
ScGrx7 [7] = biological target: T5, ScGrx7 (Saccharomyces cerevisiae, UniProt P38068, E170K); experiment: as above; format: biochemical; conditions: varied GSSCys 25-200 uM at fixed GSH 0.05-1.0 mM; 0.1 M Tris/HCl, 1 mM EDTA, pH 8.0, 25 C; ping-pong
T5 construct: gene GRX7; N-terminal MRGS(H)6 tag kept, E. coli XL1-Blue, pQE30/SCGRX7 double stop-codon construct
T5 sequence (P38068 33-203 E170K): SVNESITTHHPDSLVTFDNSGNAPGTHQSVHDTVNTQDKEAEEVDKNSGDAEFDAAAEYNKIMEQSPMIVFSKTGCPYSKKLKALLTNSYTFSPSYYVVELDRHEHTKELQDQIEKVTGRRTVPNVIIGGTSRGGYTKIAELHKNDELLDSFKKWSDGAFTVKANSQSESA

[8] = substrate: OCCSSCCO; experiment: purified protein, by the assay type; set-up: HEDS assay, GR-coupled NADPH consumption at 340 nm, steady-state kinetics; conditions: pH 8.0; 25.0 °C
Description: (§1) Both assays were performed with 0.1 mM NADPH and 1 U ml^−1 GR. Final concentrations of K105X and E170X mutants were 10 nM to 1.5 μM and 5–20 nM, respectively. Final concentrations of DM, D90A and K26A were 5–10 nM, 5–12.5 nM and 50–100 nM, respectively. […] NADPH, GSH and GR were mixed in assay buffer before Grx was added and a baseline was recorded for 30 s. […] For the HEDS assays, either GSH was varied between 100 μM and 1.5 mM for ScGrx (or 250 μM and 3.0 mM for PfGrx) at fixed concentrations of HEDS (0.18, 0.37, 0.55 and 0.74 mM) or HEDS was varied between 90 and 920 μM at fixed concentrations of GSH (0.3, 0.5, 1 and 1.5 mM for ScGrx7 or 0.25, 0.5, 1 and 2 mM for PfGrx). NADPH, GSH and HEDS were preincubated in assay buffer for 2 min before GR was added and a baseline was recorded for 30 s. All HEDS assays were started by the addition of enzyme. Kinetic data were analysed in Excel and SigmaPlot 12 by non-linear and linear regression according to Michaelis–Menten, Lineweaver–Burk, Eadie–Hofstee and Hanes theory[11][12][18]. […] All data points are the mean ± S.D. from at least three independent replicates and were averaged from at least three independent protein purification experiments and subsequently plotted and fitted in Sigmaplot 12.5 according to Michaelis-Menten, Lineweaver-Burk, Eadie-Hofstee and Hanes theory (the latter two plots are not shown).

[9] = substrate: N[C@@H](CCC(=O)N[C@@H](CS)C(=O)NCC(=O)O)C(=O)O; experiment: purified protein, by the assay type; set-up: HEDS assay, GR-coupled NADPH consumption at 340 nm, steady-state kinetics; conditions: pH 8.0; 25.0 °C
Description: as §1

[10] = substrate: OCCSSCCO; experiment: purified protein, by the assay type; set-up: HEDS oxidoreductase assay, glutathione reductase coupled, NADPH consumption at 340 nm, pH 8.0, 25 °C; conditions: pH 8.0; 25.0 °C
Description: (§2) Both assays were performed with 0.1 mM NADPH and 1 U ml^−1 GR. Final concentrations of K105X and E170X mutants were 10 nM to 1.5 μM and 5–20 nM, respectively. Final concentrations of DM, D90A and K26A were 5–10 nM, 5–12.5 nM and 50–100 nM, respectively. […] NADPH, GSH and GR were mixed in assay buffer before Grx was added and a baseline was recorded for 30 s. […] For the HEDS assays, either GSH was varied between 100 μM and 1.5 mM for ScGrx (or 250 μM and 3.0 mM for PfGrx) at fixed concentrations of HEDS (0.18, 0.37, 0.55 and 0.74 mM) or HEDS was varied between 90 and 920 μM at fixed concentrations of GSH (0.3, 0.5, 1 and 1.5 mM for ScGrx7 or 0.25, 0.5, 1 and 2 mM for PfGrx). NADPH, GSH and HEDS were preincubated in assay buffer for 2 min before GR was added and a baseline was recorded for 30 s. All HEDS assays were started by the addition of enzyme. Kinetic data were analysed in Excel and SigmaPlot 12 by non-linear and linear regression according to Michaelis–Menten, Lineweaver–Burk, Eadie–Hofstee and Hanes theory[11][12][18]. […] All data points are the mean ± S.D. from at least three independent replicates and were averaged from at least three independent protein purification experiments and subsequently plotted and fitted in Sigmaplot 12.5 according to Michaelis-Menten, Lineweaver-Burk, Eadie-Hofstee and Hanes theory (the latter two plots are not shown). […] All data points are the mean ± S.D. from at least three independent replicates and were averaged from at least three independent protein purification experiments and subsequently plotted and fitted in Sigmaplot 12.5 according to Michaelis-Menten, Lineweaver-Burk, Eadie-Hofstee and Hanes theory (the latter two plots are not shown).

[11] = substrate: N[C@@H](CCC(=O)N[C@@H](CS)C(=O)NCC(=O)O)C(=O)O; experiment: purified protein, by the assay type; set-up: HEDS oxidoreductase assay, glutathione reductase coupled, NADPH consumption at 340 nm, pH 8.0, 25 °C; conditions: pH 8.0; 25.0 °C
Description: as §2

With OCCSSCCO [HEDS] the Km app (ScGrx7 [1]) was “Selected kcat ^app and Km ^app values of ScGrx7 wild-type enzyme and K105X mutants”.

With CC[C@H](NC(=O)CC[C@H](N)C(=O)O)C(=O)NCC(=O)O [ophthalmic acid, L-γ-glutamyl-L-α-aminobutyrylglycine] (γGlu-[Abu]-Gly-OH) the “% reduction of reaction velocity at up to 10 mM” value (ScGrx7 [2]) was 10–20%.

In the case of N[C@@H](CCC(=O)N[C@@H](CSSC[C@H](N)C(=O)O)C(=O)NCC(=O)O)C(=O)O [GSSCys], the Km app (ScGrx7 [3]) is reported as “all K105X mutants had increased Km ^app(GSSCys) values”, the Km app (ScGrx7 [4]) is reported as “Km ^app values for GSSCys and GSH were reciprocally doubled and halved, respectively” and the Km app (ScGrx7 [5]) is reported as “all K105X mutants had increased Km ^app(GSSCys) values”. The Km app (ScGrx7 [6]) was “Selected kcat ^app and Km ^app values of ScGrx7 wild-type enzyme and K105X mutants” and the Km app (ScGrx7 [7]) was “Km ^app values for GSSCys and GSH were reciprocally doubled and halved, respectively”.

B1: ScGrx7 (Saccharomyces cerevisiae S288C) (protein)
chain: SVNESITTHHPDSLVTFDNSGNAPGTHQSVHDTVNTQDKEAEEVDKNSGDAEFDAAAEYNKIMEQSPMIVFSKTGCPYSKKLKALLTNSYTFSPSYYVVELDRHEHTKELQDQIEKVTGRRTVPNVIIGGTSRGGYTEIAELHKNDELLDSFKKWSDGAFTVKANSQSESA
notes: N-terminal MRGS(H)6 tag kept, E. coli XL1-Blue, pQE30/SCGRX7 double stop-codon construct
With B1 the Km [8] was 2050 ± 200 µM and 1820 ± 300 µM and 3720 ± 1100 µM, the Km [9] was 1210 ± 200 µM and 1230 ± 150 µM and 1120 ± 110 µM and the Km [10] was 2300 ± 700 µM and 1500 ± 200 µM. The Km [11] was 1200 ± 100 µM and 2300 ± 500 µM.
